The record followed here is PMC6756013, “B591, a novel specific pan-PI3K inhibitor, preferentially targets cancer stem cells” (Oncogene, 2019).

Data set [1] relates to MDA-MB-231 orthotopic xenografts. Description: MDA-MB-231 orthotopic xenograft. The data set is classed as in vivo, NOD/SCID mice. The conditions noted are these: for Decrease of tumor burden (determined by volume): versus vehicle. How it is done: Then we evaluated the inhibitory effect of B591 on CSCs by in vivo xenograft assay (Fig. 5a). B591 (4 or 16 mg/kg) was given to the NOD/SCID mice bearing orthotopic xenografts of human breast cancer MDA-MB-231 cells for 2 weeks. […] The inhibition of PI3K/mTOR pathway by B591 in tumors was further confirmed by western blot analysis.
In MDA-MB-231 xenografts experiment, 1 × 10^6 cells were incubated into the mammary fat pad of mice orthotopically. When the volume of tumor reached above 50 mm^3, the mice were randomly divided into three groups for introperitoneal (i.p.) injection with vehicle, 4 mg/kg and 16 mg/kg B591. The tumor volume and the body weight of mice were measured during the 2-weeks treatment. In the end of treatment, the mice were killed, and the tumor tissues were dissected and dissociated into single cell suspension with Dispase II (Roche, Basel, Switzerland) according with the manufacture’s protocol. Then these single cells were used for CSCs phenotype assay, ALDH activity assay, mammosphere formation assay and limiting dilution assay in vivo as described above.

Data set [2] deals with PI3K/Akt/mTORC1 and mTORC2 signaling in multiple cancer cell lines. The experiment in a line: Western blot of PI3K downstream effectors in multiple tumor cell lines. The conditions noted are these: 5 h. The format is cell-based. How it is done: (§1) Fig. 2 B591 inhibits PI3K/Akt pathway in multiple cancer cell lines. a Representative images of Akt1 redistribution in IGF-1-treated cells in the absence or presence of B591. Scale bar represents 10 μm. Arrows indicate IGF-1-mediated membrane translocation detected by the image analysis algorithm. b Inhibition of mTORC1 and mTORC2 signaling in multiple cancer cell lines, exposed for 5 h to increasing concentrations of B591. c HepG2 cells were treated with DMSO or 20 μM of B591 for 5 h. Immunofluorescence (red) intensity reflects eIF4E subcellular distribution. Cells were visualized with high content reader. Representative images are shown, and scale bar represents 50 μm. d Nuclear-to-cytoplasmic ratio of eIF4E in five cancer cell lines was determined via high content reader. e The phosphorylation of AKT and ERK was determined by immunoblotting in RD cells in the presence of 10 μM of B591 after indicated time of exposure. f Inhibition of the phosphorylation of AKT and ERK in RD cells treated with B591, PI-103 or Rapamycin for 24 h was determined by immunoblotting
The key effectors downstream of PI3K were examined by western blot analysis in multiple tumor cell lines with different genetic background. […] Most recent study identified PtdIns(3,4,5)P3, which is generated by activated PI3K, as a direct upstream activator for mTORC2, highlighting the critical role of PI3K in mTORC2 activation. Therefore, the effect of B591 on mTORC2 signaling was evaluated by testing the phosphorylation levels of Akt at Ser473 and its substrate GSK3β at Ser9.

The subject of data set [3] is phosphorylation of Akt and ERK in RD cells. Description: Immunoblotting of feedback activation of Akt and ERK. To be noted: up to 24 h, B591 10 μM. The format is cell-based, human. How it is done: as §1
Despite a significant efficacy in preclinical models, the clinical tumor response to mTORC1 inhibitors, such as rapalogs, is modest. […]

The subject of data set [4] is lung metastasis of 4T1 cells. Description: Breast cancer metastasis study. The data set is classed as in vivo, NOD/SCID mice. To be noted: 8 mg/kg intraperitoneally once a day. How it is done: Studies implicated that the process termed EMT is associated with features of CSCs, which are considered to be involved in metastasis, a major cause of cancer-associated deaths. 4T1 murine mammary carcinoma cells spontaneously produce highly metastatic tumors that can metastasize to the lung, liver, lymph nodes, and brain while the primary tumor is growing in situ. To determine the efficacy of B591 on tumor metastasis, the metastasis model was established by incubating 4T1 cells into the mammary gland of NOD/SCID mice and treated with 8 mg/kg of B591 intraperitoneally once a day. B591 decreased more than 50% of the metastatic tumors in the lung which spontaneously metastasize from the primary tumor in the mammary gland (Fig. 6a).
To establish the metastasis model, 3 × 10^5 of 4T1 cells were incubated into the mammary fat pad of NOD/SCID mice. When tumor volume reached about 50 mm^3, mice were randomly divided into two groups for treatment with 8 mg/kg of B591 or vehicle (i.p.) for 2 months. The metastatic tumors in lung were stained with ink as previously reported.

Data set [5] concerns MDA-MB-231 and SUM-159PT mammospheres. The experiment in a line: Secondary mammosphere-formation assay. The format is cell-based, human. The conditions noted are these: primary mammospheres treated 48 h, then passaged. How it is done: Cells were treated with indicated agents for 48 h, and cells were harvested and processed for apoptosis assay using the PE-Annexin V/7-AAD Apoptosis Detection Kit. d Representative flow cytometry plots of apoptosis inducing activity of B591 (10 μM) and paclitaxel (10 nM) on monolayer and mammosphere MDA-MB-231 cells. e B591 preferentially targeted CD44^high/CD24^low cells. Cells were treated with B591 or paclitaxel for 2 days. Following a 4-day recovery period, cells were co-stained with CD44 and CD24 antibodies and subjected to FACS analysis. Representative flow cytometry plots show the effect of B591 on CD44^high/CD24^low population in MDA-MB-231 cells in vitro. f B591 decreased mammosphere forming efficiency. Primary MDA-MB-231 mammospheres were treated with B591 or paclitaxel for 48 h. Results of the secondary mammosphere-formation assay are shown. Scale bar represents 40 μm. g B591 decreased the expression of CSC markers in MDA-MB-231 cells. Cells were treated with B591 or paclitaxel for 2 days. […]
In the mammosphere assay, MDA-MB-231 (Fig. 3f) and SUM-159PT (Supplementary Fig. S10D) cells were treated with B591 or paclitaxel, and the mammospheres were collected and subsequently passaged. Secondary Mammosphere-forming activity was determined, which reflects the self-renewal capability of CSCs. […]

For the molecule `Cc1cc2c(cc1C)[n+](Cc1ccccc1Br)cn2Cc1ccc2c(c1)CCO2.[Br-]` [B591, 3-(2-bromobenzyl)-1-((2,3-dihydrobenzofuran-5-yl)methyl) -5,6-dimethyl-1H-benzo[d]imidazol-3-ium bromide], the “Decrease of tumor burden (determined by volume)” value in data set [1] (4 mg/kg i.p., 2 weeks) came out at 40%. In addition, in data set [1] (16 mg/kg i.p., 2 weeks), the “Inhibition based on final tumor weights” value stood at 70.7% and the “Decrease of tumor burden (determined by volume)” value is 60%. The Body weight result in data set [1] (4 or 16 mg/kg, 2 weeks) was “no significant body weight loss”. In data set [1] (tumors dissociated at end of treatment), the “CD44high/CD24low and ALDHhigh breast CSCs populations in xenograft tumors” value is listed as “significantly reduced”. The “PI3K/Akt/mTORC1 signaling (phosphorylation of 4E-BP1, S6K1, S6)” value in data set [2] is “effectively inhibited PI3K/Akt/mTORC1 signaling”. Moreover, the “mTORC2 signaling: p-Akt (Ser473) and p-GSK3β (Ser9)” value in data set [2] (all tested cell types) is given as “concentration-dependent decrease”. Moreover, the “Phosphorylation of Akt at Thr308” value in data set [2] (increasing concentrations) is “potently inhibited”. The “Phosphorylation of Akt and ERK” value in data set [3] was “effectively suppressed the phosphorylation of Akt and ERK over the whole time course of 24 h”. Further, the “Decrease of metastatic tumors in the lung” value in data set [4] is “more than 50%”. The Secondary mammosphere-forming ability result in data set [5] is given as “strikingly suppressed”.
